# Measured values reported in publication PMC12668308, “A Novel Antimalarial Agent that Inhibits Protein Synthesis in Plasmodium falciparum” (Angewandte Chemie (International Ed. in English), 2025).
# Test system: P. falciparum NF54 strain
# Assay: [3H]-hypoxanthine incorporation assay, asexual blood stage
# Format: cell-based, Plasmodium falciparum
# Conditions: PfNF54 IC50
# Procedure: P. falciparum asexual blood stage parasites were cultured in human red blood cells (RBC, Blutspende SRK, Zurich) at a hematocrit of 5% in RPMI 1640 medium. The RPMI 1640 medium (ThermoFisher Scientific #51800−043) was supplemented with the following: 24 mM NaHCO3 (pH 7.3, Sigma-Aldrich #31437−500G-R), 25 mM Hepes (Sigma-Aldrich #H4034−500G), 0.36 mM hypoxanthine (Sigma-Aldrich # H9377−25G), 100 µg mL^-1 neomycin (Sigma-Aldrich #N6386−100G) and 0.5% Albumax II (Thermo Fisher #11021−045). Additionally, 2 mM choline chloride (279 mg/L, Sigma-Aldrich #C7527−100G) was added to the culture to block the induction of sexual commitment as described. ^[31^] The RPMI 1640 medium and components were dissolved in water (Milli-Q purified), stirred for at least 3 h, and then sterile filtered (0.22 μm pore size) with a bottle top filter (Corning # 431118). Parasite cultures were maintained in an atmosphere of 3% O2, 4% CO2, and 93% N2 in air-tight chambers at 37 °C. The [^3H]-hypoxanthine incorporation assay was used to test compound activity in the specific parasite lines as described.^[32^] Briefly, compounds were dissolved in DMSO (10 mM) and diluted in a hypoxanthine-free culture medium. A limiting dilution was performed over a 64-fold range (6-step twofold dilution) in a 96-well plate in duplicates. For every starting concentration, a limiting dilution was performed over a 64-fold range (6-step twofold dilution) in a 96-well plate in two biological duplicates. Parasites were added at 100 µL to each well containing the compound to obtain a final parasitemia of 0.3% and haematocrit of 1.25%. The plates were incubated for 48 h before 0.25 µCi of [^3H]-hypoxanthine was added per well for an additional 24 h. Parasites were harvested on a glass-fiber filter with a Microbeta FilterMate cell harvester (Perkin Elmer, Waltham, USA) and radioactivity was counted using a MicroBeta2 liquid scintillation counter (Perkin Elmer, Waltham, US). […] The fifty percent inhibitory concentration (IC50) was calculated by using nonlinear, four parameter (variable slope) curve fitting as described ^[33^] after importing into GraphPad Prism (version 8.3.0).
row,SMILES,fold increased activity compared to the initial hit molecule 1
1,"O=C(Nc1cc(S(=O)(=O)N2CCCC2)ccc1O)c1cccc(Oc2cc(C(F)(F)F)ccn2)c1 [Compound 23, N-(2-Hydroxy-5-(pyrrolidin-1-ylsulfonyl)phenyl)-3-((4-(trifluoromethyl)pyridin-2-yl)oxy)benzamide]",about 8 fold

# Same assay, conditions: Plasmodium falciparum, NF54, asexual blood stage; mean ± s.d.; read-out: PfNF54 IC50 ± s.d.
row,SMILES,IC50 [nM]
1,"O=C(Nc1cccc(S(=O)(=O)N2CCCC2)c1)c1cccc(Oc2ccccc2)c1 [Compound 5, 3-Phenoxy-N-(3-(pyrrolidin-1-ylsulfonyl)phenyl)benzamide]",4930 ± 97.8
2,"CC(C)c1ccc(O)c(NC(=O)c2cccc(Oc3cc(C(F)(F)F)ccn3)c2)c1 [Compound 25, N-(2-Hydroxy-5-isopropylphenyl)-3-((4-(trifluoromethyl)pyridin-2-yl)oxy)benzamide]",34 ± 4
3,"O=C(Nc1cc(S(=O)(=O)N2CCCC2)ccc1O)c1cccc(Oc2cc(C(F)(F)F)ccn2)c1 [Compound 23, N-(2-Hydroxy-5-(pyrrolidin-1-ylsulfonyl)phenyl)-3-((4-(trifluoromethyl)pyridin-2-yl)oxy)benzamide]",69
4,"CN(Cc1ccc(O)c(NC(=O)c2cccc(Oc3cc(C(F)(F)F)ccn3)c2)c1)C1CCCCC1 [Compound 29, N-(5-((Cyclohexyl(methyl)amino)methyl)-2-hydroxyphenyl)-3-((4-(trifluoromethyl)pyridin-2-yl)oxy)benzamide]",7.6 ± 1.8
5,"CC1(C)CCN(S(=O)(=O)c2ccc(O)c(NC(=O)c3cccc(Oc4ccccc4)c3)c2)C1 [Compound 10, N-(5-((3,3-diMethylpyrrolidin-1-yl)sulfonyl)-2-hydroxyphenyl)-3-phenoxybenzamide]",1410 ± 147
6,"CCN(CC)CCCNCc1ccc(O)c(NC(=O)c2cccc(Oc3cc(C(F)(F)F)ccn3)c2)c1 [Compound 28, N-(5-(((3-(diEthylamino)propyl)amino)methyl)-2-hydroxyphenyl)-3-((4-(trifluoromethyl)pyridin-2-yl)oxy)benzamide]",41 ± 17.2
7,"CCS(=O)(=O)c1ccc(O)c(NC(=O)c2cccc(Oc3ccccc3)c2)c1 [Compound 7, N-(5-(Ethylsulfonyl)-2-hydroxyphenyl)-3-phenoxybenzamide]",217 ± 42.4
8,"O=C(Nc1cc(S(=O)(=O)N2CCCC2)ccc1O)c1cccc(Oc2cccc(F)c2)c1 [Compound 16, 3-(3-Fluorophenoxy)-N-(2-hydroxy-5-(pyrrolidin-1-ylsulfonyl)phenyl)benzamide]",361 ± 83
9,"O=C(Nc1cc(S(=O)(=O)N2CCCC2)ccc1O)c1cccc(Oc2ccccn2)c1 [Compound 19, N-(2-Hydroxy-5-(pyrrolidin-1-ylsulfonyl)phenyl)-3-(pyridin-2-yloxy)benzamide]",1450 ± 80
10,"O=C(Nc1cc(S(=O)(=O)N2CCCCC2)ccc1O)c1cccc(Oc2ccccc2)c1 [Compound 9, N-(2-Hydroxy-5-(piperidin-1-ylsulfonyl)phenyl)-3-phenoxybenzamide]",574 ± 66.5
11,"CCCCNS(=O)(=O)c1ccc(O)c(NC(=O)c2cccc(Oc3ccccc3)c2)c1 [Compound 8, N-(5-(N-Butylsulfamoyl)-2-hydroxyphenyl)-3-phenoxybenzamide]",1910 ± 254
12,"O=C(Nc1cc(S(=O)(=O)N2CCCC2)ccc1O)c1cccc(Oc2cccc(Cl)n2)c1 [Compound 20, 3-((6-Chloropyridin-2-yl)oxy)-N-(2-hydroxy-5-(pyrrolidin-1-ylsulfonyl)phenyl)benzamide]",746 ± 21.3
13,"O=C(Nc1cc(S(=O)(=O)N2CCCC2)ccc1O)c1cccc(Oc2cccc(C(F)(F)F)n2)c1 [Compound 21, N-(2-Hydroxy-5-(pyrrolidin-1-ylsulfonyl)phenyl)-3-((6-(trifluoromethyl)pyridin-2-yl)oxy)benzamide]",> 10000
14,"Oc1ccc(CN2CCOCC2)cc1-n1cc(-c2cccc(Oc3cc(C(F)(F)F)ccn3)c2)nn1 [Compound 37, 4-(Morpholinomethyl)-2-(4-(3-((4-(trifluoromethyl)pyridin-2-yl)oxy)phenyl)-1H-1,2,3-triazol-1-yl)phenol]",21 ± 1.13
15,"O=C(Nc1cc(CN2CCOCC2)ccn1)c1cccc(Oc2cc(C(F)(F)F)ccn2)c1 [Compound 35, N-(4-(Morpholinomethyl)pyridin-2-yl)-3-((4-(trifluoromethyl)pyridin-2-yl)oxy)benzamide]",> 10000
16,"CC1CCN(S(=O)(=O)c2ccc(O)c(NC(=O)c3cccc(Oc4ccccc4)c3)c2)CC1 [Compound 11, N-(2-Hydroxy-5-((4-methylpiperidin-1-yl)sulfonyl)phenyl)-3-phenoxybenzamide]",1030 ± 116
17,"O=C(Nc1cc(S(=O)(=O)N2CCOCC2)ccc1O)c1cccc(Oc2ccccc2)c1 [Compound 12, N-(2-Hydroxy-5-(morpholinosulfonyl)phenyl)-3-phenoxybenzamide]",197 ± 28
18,"O=C(Nc1cc(S(=O)(=O)N2CCCC2)ccc1O)c1cccc(Oc2ccc(Cl)c(C(F)(F)F)c2)c1 [Compound 17, 3-(4-Chloro-3-(trifluoromethyl)phenoxy)-N-(2-hydroxy-5-(pyrrolidin-1-ylsulfonyl)phenyl)benzamide]",2315 ± 8.5
19,"O=C(Nc1cc(S(=O)(=O)N2CCCC2)ccc1O)c1ccc(Oc2ccccc2)cc1 [Compound 15, N-(2-Hydroxy-5-(pyrrolidin-1-ylsulfonyl)phenyl)-4-phenoxybenzamide]",539 ± 92.2
20,"COc1ccc(S(=O)(=O)N2CCCC2)cc1NC(=O)c1cccc(Oc2ccccc2)c1 [Compound 2, N-(2-Methoxy-5-(pyrrolidin-1-ylsulfonyl)phenyl)-3-phenoxybenzamide]",> 10000
21,"Oc1ccc(CN2CCOCC2)cc1NCc1cccc(Oc2cc(C(F)(F)F)ccn2)c1 [Compound 36, 4-(Morpholinomethyl)-2-((3-((4-(trifluoromethyl)pyridin-2-yl)oxy)benzyl)amino)phenol]",808 ± 172
22,"CN(C(=O)c1cccc(Oc2ccccc2)c1)c1cc(S(=O)(=O)N2CCCC2)ccc1O [Compound 4, N-(2-Hydroxy-5-(pyrrolidin-1-ylsulfonyl)phenyl)-N-methyl-3-phenoxybenzamide]",> 10000
23,"O=C(Nc1cc(-n2cnnc2)ccc1O)c1cccc(Oc2cc(C(F)(F)F)ccn2)c1 [Compound 26, N-(2-Hydroxy-5-(4H-1,2,4-triazol-4-yl)phenyl)-3-((4-(trifluoromethyl)pyridin-2-yl)oxy)benzamide]",158 ± 15.6
24,"Cc1ccc(C(C)C)cc1Oc1cccc(C(=O)Nc2cc(S(=O)(=O)N3CCCC3)ccc2O)c1 [Compound 18, N-(2-hydroxy-5-(pyrrolidin-1-ylsulfonyl)phenyl)-3-(5-isopropyl-2-methylphenoxy)benzamide]",1500 ± 81.2
25,"O=C(Nc1cc(S(=O)(=O)NCC2CCCCC2)ccc1O)c1cccc(Oc2ccccc2)c1 [Compound 13, N-(5-(N-(Cyclohexylmethyl)sulfamoyl)-2-hydroxyphenyl)-3-phenoxybenzamide]",> 10000
26,"O=C(Nc1cc(S(=O)(=O)NCc2ccccc2)ccc1O)c1cccc(Oc2ccccc2)c1 [Compound 14, N-(5-(N-Benzylsulfamoyl)-2-hydroxyphenyl)-3-phenoxybenzamide]",2780 ± 389
27,"NS(=O)(=O)c1ccc(O)c(NC(=O)c2cccc(Oc3ccccc3)c2)c1 [Compound 6, N-(2-Hydroxy-5-sulfamoylphenyl)-3-phenoxybenzamide]",777 ± 86
28,"COc1ccc(S(=O)(=O)N2CCCC2)cc1N(C)C(=O)c1cccc(Oc2ccccc2)c1 [Compound 3, N-(2-methoxy-5-(pyrrolidin-1-ylsulfonyl)phenyl)-N-methyl-3-phenoxybenzamide]",> 10000
29,"Cc1cc(C(F)(F)F)cc(Oc2cccc(C(=O)Nc3cc(S(=O)(=O)N4CCCC4)ccc3O)c2)n1 [Compound 22, N-(2-hydroxy-5-(pyrrolidin-1-ylsulfonyl)phenyl)-3-((6-methyl-4-(trifluoromethyl)pyridin-2-yl)oxy)benzamide]",216 ± 32.3
